# Reference: patent publication US12274731B1, “Polybasic antimalarial agents and methods of use thereof” (priority 2018, dated 2025)
# Like-named read-outs stand apart in the source and are kept apart here.
# Assays:
# [1] = test system: Plasmodium falciparum (Dd2 and Nf54); test: P. falciparum growth assay / dose-response in human erythrocyte culture (parasitemia after 72 h, acridine orange, FACS); format: cell-based; settings: for parasite growth (endpoint parasitemia, percentage of control): 72-hour treatment, equal concentrations in the media; for IC50: P. falciparum in human erythrocytes, about 72 hours post compound addition
# Source text: FIG. 4A-FIG. 4D. […] DHHC8 transcript codes for five consecutive lie-residues. Levels of each transcript are normalized to total ribosome levels and represented as a ratio of transcript levels under Ile starvation (−Ile) over the control conditions (+Ile). […] Western blot analysis of Ile starved (−Ile), and control (+Ile) sample are normalized to PfHAD1 (PF3D7_1033400) levels. HA-tagged P. falciparum Pelo protein was CRISPR/Cas9 engineered and detected using mouse HA-antibody. The molecular weight of each protein is indicated. […] (D) P. falciparum growth assay in the presence of different compounds and amino acid polymers. Data represent endpoint parasitemia after 72-hour treatment with the indicated compound. Results are normalized to non-treated cultures (control) and presented as a percentage of control samples. Average value from three biological replicates is reported with standard deviation.
# The lack of P. falciparum taxis during invasion of host cells, alterations in cytoadhesive properties of infected erythrocytes and previously shown invasion-blocking effects of heparin prompted testing whether poly-lysine repeats in P. falciparum membrane proteins contribute to the overall efficiency of parasite invasion of host erythrocytes.
# For FIG. 21-FIG. 25, the general procedure for the drug assays included a total sample volume of 200 μl, every concentration was performed in triplicate, hematocrit was 2%, and starting parasitemia was 1%. The starting concentration of drug was 100 μg/ml and the serial dilution was made from the starting concentration. The end concentration was 0.39 μg/ml). The control represents growth of the parasite culture without added drug. All samples were subjected to Acridine orange staining and the FACS analysis was done on 96 well plates. FlowJo was used to calculate parasitemia.
# Dose-response experiments were performed in triplicate with mixed culture of P. falciparum (1.0%-1.2% starting parasitemia). Parasitemias (percentage of total erythrocytes infected with parasites) were measured approximately 72 hours post compound addition by nucleic acid staining of infected red blood cells with 0.8 mg/ml acridine orange in PBS. Inhibition data were fit to a sigmoidal dose-response curve was done using Graphpad Prism 5.0.
# [2] = test system: mCherry labelled P. berghei; test: Treatment of mice infected with mCherry labelled P. berghei; format: in vivo; settings: 4 doses, over 7 days of infection
# Source text: Intraperitoneal treatment of mice results in the reduction of parasitemia over 2 days (see e.g., FIG. 25).
# uninfected human cells = test: Binding to uninfected human cells (fluorescence microscopy); format: cell-based
# Experimental: Here, the same procedure as for above (FIG. 19) was performed for the cell culture, except for the incubation volume was 1 ml in PBS and the images were taken on a lab microscope.
# human erythrocytes = test: Hemolysis in erythrocyte culture; format: cell-based; settings: at IC50
# [3] = Structure preservation of crystalline PLL; format: physicochemical; settings: 37° C.
Substance,activity against Plasmodium / malaria [1],"parasite growth (endpoint parasitemia, percentage of control) [1]",IC50 [1] [µg/mL],binding to other human cells (uninfected human cells) (uninfected human cells),other results
"10-L-lysines (SEQ ID NO: 4): Poly (L) lysine of 10 residues in length, from Alamanda polymers (KKKKKKKKKK; Synthetic polybasic peptide)",no activity,,,,
heparin,,inhibiting parasite growth,12,,
poly-L-lysine,,efficient reduction of parasite growth,9,do not detectably bind,parasitemia [2]: reduces parasitemia; hemolysis (human erythrocytes): without hemolysis; structure preservation [3]: preserves structure
poly-L-ornithine,,efficient reduction of parasite growth,,do not detectably bind,
poly-glutamate,,did not affect the growth of parasites,,,
poly-ε-L-lysine,not shown to be effective,,,,activity against Plasmodium / malaria ([1]; listed as Epsilon poly-lysine): did not appear to have activity
